Assay results reported in patent US12577228B2, “Dihydrocyclopenta-isoquinoline-sulfonamide derivatives compounds” (UCB Biopharma SRL, priority 2019, dated 2026).
pIC50: −log10 of the molar value.

biological target: T1, IgE-Tb / soluble IgE receptor FcεRIα with a Y131A mutation (Homo sapiens, UniProt P01854, N146Q/N252Q); experiment: in vitro FRET assay: binding of IgE-Tb to receptor FcεRIα-Y131A-AF488 and its inhibition by compounds; details: 5 nM IgE-Tb, 25 nM FcεRIα-Y131A-AF488, 2 hours at room temperature; read-out: FRET IC50 range
T1 construct: fused on or other part: Terbium chelate (LanthaScreen amine-reactive) on IgE-Fc; Alexa Fluor 488 hydrazide on the oxidised glycans of sFcεRIα; Both are labels and no part of the key
T1 sequence (P01854 104-427 N146Q/N252Q): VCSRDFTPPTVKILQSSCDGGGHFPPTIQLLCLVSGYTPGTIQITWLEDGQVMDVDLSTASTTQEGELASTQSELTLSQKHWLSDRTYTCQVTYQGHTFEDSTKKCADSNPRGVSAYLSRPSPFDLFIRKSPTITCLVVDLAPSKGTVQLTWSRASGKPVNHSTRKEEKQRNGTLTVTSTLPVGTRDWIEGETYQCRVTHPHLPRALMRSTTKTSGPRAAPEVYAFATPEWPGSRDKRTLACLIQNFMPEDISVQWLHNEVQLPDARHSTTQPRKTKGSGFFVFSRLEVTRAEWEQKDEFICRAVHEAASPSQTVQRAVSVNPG
T1 sequence (P12319 26-201 Y156A partner): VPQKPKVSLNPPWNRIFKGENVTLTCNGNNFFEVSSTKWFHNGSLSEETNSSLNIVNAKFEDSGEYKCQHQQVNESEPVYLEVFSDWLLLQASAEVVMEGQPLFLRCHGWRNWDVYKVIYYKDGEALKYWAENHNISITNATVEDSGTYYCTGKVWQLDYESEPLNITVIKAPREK

Row | Compound | pIC50
1 | CCNC(=O)NC1CCc2c1cc1cnc(C3CC3)cc1c2S(=O)(=O)NCC(C)C (centres unmarked) [Example 45, 1-[3-cyclopropyl-5-(2-methylpropylsulfamoyl)-7,8-dihydro-6H-cyclopenta[g]isoquinolin-8-yl]-3-ethylurea] | 5.70 to 7.00
2 | CCNC(=O)NC1CCc2cc3cnc(C4CC4)cc3c(S(=O)(=O)NCC(C)C)c21 (centres unmarked) [Example 46, 1-[3-cyclopropyl-5-(2-methylpropylsulfamoyl)-7,8-dihydro-6H-cyclopenta[g]isoquinolin-6-yl]-3-ethylurea] | 5.70 to 7.00
3 | CC(C)CNS(=O)(=O)c1c2c(cc3cnc(C4CC4)cc13)C(O)CC2 (centres unmarked) [Example 47, 3-cyclopropyl-8-hydroxy-N-(2-methylpropyl)-7,8-dihydro-6H-cyclopenta[g]isoquinoline-5-sulfonamide] | 5.70 to 7.00
4 | CC(C)CNS(=O)(=O)c1c2c(cc3cnc(C4CC4)cc13)CCC2O (centres unmarked) [Example 48, 3-cyclopropyl-6-hydroxy-N-(2-methylpropyl)-7,8-dihydro-6H-cyclopenta[g]isoquinoline-5-sulfonamide] | 5.70 to 7.00
5 | CC(C)(F)CNS(=O)(=O)c1c2c(cc3cnc(C4CC4)cc13)CC1(COC(=O)N1)C2 (centres unmarked) [Example 49, 3′-cyclopropyl-N-(2-fluoro-2-methylpropyl)-2-oxospiro[1,3-oxazolidine-4,7′-6,8-dihydrocyclopenta[g]isoquinoline]-5′-sulfonamide] | 5.70 to 7.00
6 | CC(C)(F)CNS(=O)(=O)c1c2c(cc3cnc(C4CC4)cc13)CC(CO)(Nc1nncn1-c1cccnc1)C2 (centres unmarked) [Example 50, 3-cyclopropyl-N-(2-fluoro-2-methylpropyl)-7-(hydroxymethyl)-7-[(4-pyridin-3-yl-1,2,4-triazol-3-yl)amino]-6,8-dihydrocyclopenta[g]isoquinoline-5-sulfonamide] | 5.70 to 7.00
7 | CC(C)(F)CNS(=O)(=O)c1c2c(cc3cnc(C4CC4)cc13)CN(c1cccnc1N)C2 [Example 51, 2-(2-aminopyridin-3-yl)-7-cyclopropyl-N-(2-fluoro-2-methylpropyl)-1,3-dihydropyrrolo[3,4-g]isoquinoline-9-sulfonamide] | 5.70 to 7.00
8 | CCNc1c(NC2Cc3cc4cnc(C5CC5)cc4c(S(=O)(=O)NCC(C)C)c3C2)c(=O)c1=O (centres unmarked) [Example 53, 3-cyclopropyl-7-[[2-(ethylamino)-3,4-dioxocyclobuten-1-yl]amino]-N-(2-methylpropyl)-7,8-dihydro-6H-cyclopenta[g]isoquinoline-5-sulfonamide] | 7.30 to 8.00
9 | CC(C)CNS(=O)(=O)c1c2c(cc3cnc(C4CC4)cc13)CC(C(=O)NCC(C)(C)C)C2 (centres unmarked) [Example 54, 3-cyclopropyl-N-(2,2-dimethylpropyl)-5-(2-methylpropylsulfamoyl)-7,8-dihydro-6H-cyclopenta[g]isoquinoline-7-carboxamide] | 7.30 to 8.00
10 | CC(C)CNS(=O)(=O)c1c2c(cc3cnc(C4CC4)cc13)CC(NS(C)(=O)=O)C2 (centres unmarked) [Example 55, 3-cyclopropyl-7-(methanesulfonamido)-N-(2-methylpropyl)-7,8-dihydro-6H-cyclopenta[g]isoquinoline-5-sulfonamide] | 7.00 to 7.30
11 | CC(C)(F)CNS(=O)(=O)c1c2c(cc3cnc(C4CC4)cc13)CC(c1nc3ccncc3[nH]1)C2 (centres unmarked) [Example 56, 3-cyclopropyl-N-(2-fluoro-2-methylpropyl)-7-(3H-imidazo[4,5-c]pyridin-2-yl)-7,8-dihydro-6H-cyclopenta[g]isoquinoline-5-sulfonamide] | 7.00 to 7.30
12 | Cc1cc(Nc2nncn2C2Cc3cc4cnc(C5CC5)cc4c(S(=O)(=O)NCC(C)(C)F)c3C2)n(C)n1 (centres unmarked) [Example 57, 3-cyclopropyl-7-[3-[(2,5-dimethylpyrazol-3-yl)amino]-1,2,4-triazol-4-yl]-N-(2-fluoro-2-methylpropyl)-7,8-dihydro-6H-cyclopenta[g]isoquinoline-5-sulfonamide] | 5.70 to 7.00
13 | CC(C)(F)CNS(=O)(=O)c1c2c(cc3cnc(C4CC4)cc13)CC(n1ccnc1NCC1CC1)C2 (centres unmarked) [Example 58, 3-cyclopropyl-7-[2-(cyclopropylmethylamino)imidazol-1-yl]-N-(2-fluoro-2-methylpropyl)-7,8-dihydro-6H-cyclopenta[g]isoquinoline-5-sulfonamide] | 5.70 to 7.00
14 | CCNC(=O)CN1Cc2cc3cnc(C4CC4)cc3c(S(=O)(=O)NCC(C)C)c2C1 [Example 59, 2-[7-cyclopropyl-9-(2-methylpropylsulfamoyl)-1,3-dihydropyrrolo[3,4-g]isoquinolin-2-yl]-N-ethylacetamide] | 5.70 to 7.00
15 | CC(C)CNS(=O)(=O)c1c2c(cc3cnc(C4CC4)cc13)CNC2 [Example 60, 7-cyclopropyl-N-(2-methylpropyl)-2,3-dihydro-1H-pyrrolo[3,4-g]isoquinoline-9-sulfonamide] | 5.70 to 7.00
16 | CC(C)(F)CNS(=O)(=O)c1c2c(cc3cnc(C4CC4)cc13)C[C@@H](Nc1ccc(S(N)(=O)=O)nc1)C2 [Example 61, (7R)-3-cyclopropyl-N-(2-fluoro-2-methylpropyl)-7-[(6-sulfamoylpyridin-3-yl)amino]-7,8-dihydro-6H-cyclopenta[g]isoquinoline-5-sulfonamide] | 7.30 to 8.00
17 | CC(C)(F)CNS(=O)(=O)c1c2c(cc3cnc(C4CC4)cc13)CC(Nc1cncc3[nH]cnc13)C2 (centres unmarked) [Example 62, 3-cyclopropyl-N-(2-fluoro-2-methylpropyl)-7-(3H-imidazo[4,5-c]pyridin-7-ylamino)-7,8-dihydro-6H-cyclopenta[g]isoquinoline-5-sulfonamide] | 7.30 to 8.00
18 | CC(C)(F)CNS(=O)(=O)c1c2c(cc3cnc(C4CC4)cc13)CC(Nc1cc[nH]c(=O)c1)C2 (centres unmarked) [Example 63, 3-cyclopropyl-N-(2-fluoro-2-methylpropyl)-7-[(2-oxo-1H-pyridin-4-yl)amino]-7,8-dihydro-6H-cyclopenta[g]isoquinoline-5-sulfonamide] | 7.30 to 8.00
19 | CCOC(=O)c1nnc(N[C@@H]2Cc3cc4cnc(C5CC5)cc4c(S(=O)(=O)NCC(C)(C)F)c3C2)s1 [Example 64, ethyl 5-[[(7R)-3-cyclopropyl-5-[(2-fluoro-2-methylpropyl)sulfamoyl]-7,8-dihydro-6H-cyclopenta[g]isoquinolin-7-yl]amino]-1,3,4-thiadiazole-2-carboxylate] | 7.30 to 8.00
20 | CC(C)(F)CNS(=O)(=O)c1c2c(cc3nnc(C4CC4)cc13)CC(NC(=O)OC(C)(C)C)C2 (centres unmarked) [Example 65, tert-butyl N-[3-cyclopropyl-5-[(2-fluoro-2-methylpropyl)sulfamoyl]-7,8-dihydro-6H-cyclopenta[g]cinnolin-7-yl]carbamate] | 5.70 to 7.00
21 | Cc1nnc(-c2ccc(NC3Cc4cc5nnc(C6CC6)cc5c(S(=O)(=O)NCC(C)(C)F)c4C3)cn2)o1 (centres unmarked) [Example 66, 3-cyclopropyl-N-(2-fluoro-2-methylpropyl)-7-[[6-(5-methyl-1,3,4-oxadiazol-2-yl)pyridin-3-yl]amino]-7,8-dihydro-6H-cyclopenta[g]cinnoline-5-sulfonamide] | 7.30 to 8.00
22 | Cc1nc(C2CC2)cc2c(S(=O)(=O)NCC(C)C)c3c(cc12)CCC3 [Example 67, 3-cyclopropyl-1-methyl-N-(2-methylpropyl)-7,8-dihydro-6H-cyclopenta[g]isoquinoline-5-sulfonamide] | 5.70 to 7.00
23 | CC(C)CNS(=O)(=O)c1c2c(cc3cnc(C4CC4)cc13)OCO2 [Example 68, 7-cyclopropyl-N-(2-methylpropyl)-[1,3]dioxolo[4,5-g]isoquinoline-9-sulfonamide] | 5.70 to 7.00
